Assay results reported in PMC4111509 (PLoS ONE, 2014).

Experiments:
Assay in all cases: HPLC-UV product detection
Assay type in all cases: biochemical
Details in all cases: AdoMet co-substrate
NpN4OMT5 = molecular target: T1, NpN4OMT5 (Narcissus aff. pseudonarcissus MK-2014, UniProt A0A077ESS0)
T1 construct: gene N4OMT5; full length, N-terminal His tag (pET28a), E. coli, purified

NpN4OMT2 = molecular target: T2, NpN4OMT2 (Narcissus aff. pseudonarcissus MK-2014, UniProt A0A077EW86)
T2 construct: gene N4OMT2; full length, N-terminal His tag (pET28a), E. coli, purified

NpN4OMT4 = molecular target: T3, NpN4OMT4 (Narcissus aff. pseudonarcissus MK-2014, UniProt A0A077ES70)
T3 construct: gene N4OMT4; full length, N-terminal His tag (pET28a), E. coli, purified
T3 sequence (A0A077ES70 whole entry): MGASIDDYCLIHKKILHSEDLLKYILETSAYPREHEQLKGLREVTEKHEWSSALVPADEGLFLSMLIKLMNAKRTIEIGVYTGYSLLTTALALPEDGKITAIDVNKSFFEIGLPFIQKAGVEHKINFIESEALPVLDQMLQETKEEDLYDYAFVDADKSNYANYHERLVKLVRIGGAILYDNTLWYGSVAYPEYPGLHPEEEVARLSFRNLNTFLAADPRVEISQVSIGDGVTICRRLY

T1 sequence (A0A077ESS0 whole entry): as the sequence (A0A077ES70 whole entry) above, with I67L counted along it
T2 sequence (A0A077EW86 whole entry): as the sequence (A0A077ES70 whole entry) above, with C9S, I11V, K14N, I67L counted along it

SMILES: Oc1ccc(CCNCc2ccc(O)c(O)c2)cc1 [norbelladine]
- HPLC-UV product detection (NpN4OMT5): enzymatic activity was confirmed for all variants using norbelladine as the substrate
- HPLC-UV product detection (NpN4OMT2): enzymatic activity was confirmed for all variants using norbelladine as the substrate
- HPLC-UV product detection (NpN4OMT4): enzymatic activity was confirmed for all variants using norbelladine as the substrate
